Converted amounts (≈) assume the structure as drawn. The source made the active and inactive calls. No cut-off for these calls is given here.
What was measured:
Staphylococcus aureus [1] = experiment: Antimicrobial activity against methicillin-resistant Staphylococcus aureus isolate RKI 11-02670 after 18 hrs by serial dilution method; format: functional, organism-based; conditions: isolate RKI 11-02670, 18 h
L929 = experiment: Antiproliferative activity against mouse L929 cells after 5 days by WST-1 assay; format: ADME, cell-based; conditions: L929, 120 h
[2] = Antiproliferative activity against human FS4-LTM cells after 24 hrs by WST-1 assay; format: ADME, cell-based
MCF7 = experiment: Antiproliferative activity against human MCF7 cells after 5 days by WST-1 assay; format: functional, cell-based; conditions: MCF7, 120 h
KB 3-1 = experiment: Antiproliferative activity against human KB-3-1 cells after 5 days by WST-1 assay; format: functional, cell-based; conditions: KB 3-1, 120 h
Escherichia coli = experiment: Antimicrobial activity against Escherichia coli DSM 1116 up to 100 uM after 18 hrs by serial dilution method; format: functional, organism-based
Staphylococcus aureus [3] = experiment: Antimicrobial activity against methicillin-resistant Staphylococcus aureus isolate RKI 11-02670 up to 100 uM after 18 hrs by serial dilution method; format: functional, organism-based
Pseudomonas aeruginosa = experiment: Antimicrobial activity against Pseudomonas aeruginosa PA7 DSM 24068 up to 100 uM after 18 hrs by serial dilution method; format: functional, organism-based
Enterococcus faecium = experiment: Antimicrobial activity against Enterococcus faecium DSM 20477 up to 100 uM after 18 hrs by serial dilution method; format: functional, organism-based
Candida albicans = experiment: Antimicrobial activity against Candida albicans up to 100 uM after 18 hrs by serial dilution method; format: functional, organism-based
Klebsiella pneumoniae = experiment: Antimicrobial activity against Klebsiella pneumoniae DSM 11678 up to 100 uM after 18 hrs by serial dilution method; format: functional, organism-based
Staphylococcus aureus [4] = experiment: Antimicrobial activity against methicillin-resistant Staphylococcus aureus up to 100 uM after 18 hrs by serial dilution method; format: functional, organism-based
Staphylococcus aureus [5] = experiment: Antimicrobial activity against methicillin-resistant Staphylococcus aureus DSM 11822 up to 100 uM after 18 hrs by serial dilution method; format: functional, organism-based
Acinetobacter baumannii = experiment: Antimicrobial activity against Acinetobacter baumannii DSM 30007 up to 100 uM after 18 hrs by serial dilution method; format: functional, organism-based
Staphylococcus aureus [6] = experiment: Antimicrobial activity against methicillin-resistant Staphylococcus aureus ICB 25701 up to 100 uM after 18 hrs by serial dilution method; format: functional, organism-based
Staphylococcus aureus [7] = experiment: Growth promoting activity against methicillin-resistant Staphylococcus aureus at 50 uM after 18 hrs by serial dilution method; format: organism-based; conditions: in vivo

SMILES | EC50 (Staphylococcus aureus [1]) | IC50 (L929) | IC50 [2] | IC50 (MCF7) | IC50 (KB 3-1) | Activity (Escherichia coli) | Activity (Staphylococcus aureus [3]) | Activity (Pseudomonas aeruginosa) | Activity (Enterococcus faecium) | Activity (Candida albicans) | Activity (Klebsiella pneumoniae) | Activity (Staphylococcus aureus [4]) | Activity (Staphylococcus aureus [5]) | Activity (Acinetobacter baumannii) | Activity (Staphylococcus aureus [6]) | Activity (Staphylococcus aureus [7]) | MIC (Staphylococcus aureus [1])
COc1cc(O)c2c(c1O)C/C(C(OC(C)=O)OC(C)=O)=C\CC[C@@]1(C)O[C@@H]1C2=O | 54 µM | 2.7 µM | 2.5 µM | 5.6 µM | 5.6 µM |  |  |  |  |  |  |  |  |  |  |  | 
COC1=CC(=O)C2=C(C[C@]3(C)O[C@@H]3CC[C@@]3(C)O[C@@H]3C2=O)C1=O |  | 18 µM | 31 µM | 24 µM | 20 µM | inactive | inactive | inactive | inactive | inactive | inactive | inactive | inactive | inactive | inactive |  | 
COc1cc(O)c2c(c1O)C[C@]1(C)O[C@@H]1CC[C@@]1(C)O[C@@H]1C2=O |  | 9.9 µM | 29 µM | 17 µM | 9 µM | inactive | inactive | inactive | inactive | inactive | inactive | inactive | inactive | inactive | inactive | > 25% | 
COc1cc(O)c2c(c1O)C/C(CO)=C\CC[C@@]1(C)O[C@@H]1C2=O | 50 µM | 40 µM | 42 µM | 43 µM | 59 µM |  |  |  |  |  |  |  |  |  |  |  | 
COc1cc(O)c2c(c1O)C/C(C)=C\CC[C@@]1(C)O[C@@H]1C2=O |  | 9.7 µM | 28 µM | 15 µM | 10 µM | inactive | inactive | inactive | inactive | inactive | inactive | inactive | inactive | inactive | inactive | > 25% | 
C=C1Cc2c(O)c(OC)cc(O)c2C(=O)[C@H]2O[C@]2(C)CC[C@H]1Br |  | 2.5 µM | 14 µM | 11 µM | 4.5 µM | inactive | inactive | inactive | inactive | inactive | inactive | inactive | inactive | inactive | inactive |  | 
COc1cc(O)c2c(c1O)C/C(CBr)=C\CC[C@@]1(C)O[C@@H]1C2=O | 22 µM | 10 µM | 29 µM | 32 µM | 34 µM |  |  |  |  |  |  |  |  |  |  |  | 13 µg/mL (≈ 33.9 µM)
COc1cc(O)c2c(c1O)C[C@]1(C)O[C@@](C)(CC[C@H]1O)[C@H](O)C2=O |  | > 100 µM | > 100 µM | 100 µM | 100 µM | inactive | inactive | inactive | inactive | inactive | inactive | inactive | inactive | inactive | inactive |  | 
COC1=CC(=O)C2=C(C/C(C)=C\CC[C@@]3(C)O[C@@H]3C2=O)C1=O | 64 µM | 13 µM | 28 µM | 27 µM | 14 µM |  |  |  |  |  |  |  |  |  |  |  | 
COc1cc(O)c2c(c1O)[C@@H](O)/C(C)=C\CC[C@@]1(C)O[C@@H]1C2=O |  | 4 µM | 29 µM | 6.2 µM | 4.1 µM | inactive | inactive | inactive | inactive | inactive | inactive | inactive | inactive | inactive | inactive |  | 
